From US20070116784A1, “Imatinib combinations for head and neck cancers” (priority 2003, published 2007)
Read-outs that look alike come from different tables or passages of the source.

Key:
DOK = test: Growth inhibition assay (SRB); format: cell-based
Procedure: (§1) Cell lines are sub-cultured weekly and routinely screened for mycoplasma contamination.
(§2) The cells are fixed with 100 μl of pre-chilled 10% trichloroacetic acid after removal of the medium. The plates are then chilled at 4° C. for 1 h. Following this, the plates are washed twice with water and stained with 50 μl of 0.4% SRB in 1% acetic acid for 10 min at room temperature. The unbound dye is removed and the plates are washed in 1% acetic acid to further remove unbound dye. […] Growth inhibition curves are plotted and IC50 values determined.

HN3 ACC primary culture = test: cells; format: cell-based, human
FaDu = test: Growth inhibition assay (SRB); format: cell-based, human
Procedure: as §1, §2

Cal27 = test: Growth inhibition assay (SRB); format: cell-based, human
Procedure: as §1, §2

HN1 ACC primary culture = test: cells; format: cell-based, human
HN5 ACC primary culture = test: Growth inhibition assay (SRB); format: cell-based, human

Row | SMILES | IC50 (DOK; DOK, 5-7 days, read-out: IC50) | IC50 (HN3 ACC primary culture; read-out: IC50) [nM] | IC50 (HN1 ACC primary culture; read-out: IC50) [nM] | IC50 (HN1 ACC primary culture; Homo sapiens) | also measured
1 | COc1cccc2c1C(=O)c1c(O)c3c(c(O)c1C2=O)C[C@@](O)(C(=O)CO)C[C@@H]3O[C@H]1C[C@H](N)[C@H](O)[C@H](C)O1 [Adr] | 20 nM | 60 | – | – | –
2 | COc1ccc(/C=C\c2cc(OC)c(OC)c(OC)c2)cc1O [Ca4, combrestatin] | – | – | > 20 | – | IC50 (DOK; read-out: IC50): 3.32 nM; IC50 (FaDu): 3.69 nM; IC50 (Cal27): 1.46 nM; IC50 (HN5 ACC primary culture; read-out: IC50): 3.06 nM
3 | N.N.[Cl][Pt][Cl] [Cisp, cisplatin] | 3700 nM | 2800 | 5000 | – | –
4 | O=c1[nH]cc(F)c(=O)[nH]1 [Compound 5FU, 5 fluorouracil] | 22000 nM | – | – | 4800 nM | –
5 | Nc1ccn([C@@H]2O[C@H](CO)[C@@H](O)C2(F)F)c(=O)n1 [Gem, gemcitabine] | 7.06 nM | – | – | 1.95 nM | –
6 | CO[C@@]12[C@H](COC(N)=O)C3=C(C(=O)C(C)=C(N)C3=O)N1C[C@@H]1N[C@@H]12 [MMC, mitomycin C] | 60 nM | 1160 | 1750 | – | –
7 | N[C@@H](Cc1ccc(N(CCCl)CCCl)cc1)C(=O)O [Mel, melphalan] | 111000 nM | – | – | 66600 nM | IC50 (HN3 ACC primary culture; Homo sapiens): 27500 nM; IC50 (HN5 ACC primary culture; Homo sapiens): 7300 nM
8 | CC1=C(N2CC2)C(=O)C(CO)=C(N2CC2)C1=O [RH1] | – | 0.86 | 7.11 | – | IC50 (DOK; read-out: IC50): 0.33 nM; IC50 (FaDu): 1.34 nM; IC50 (Cal27): 0.11 nM; IC50 (HN5 ACC primary culture; read-out: IC50): 0.87 nM
9 | CC(=O)O[C@H]1C(=O)[C@@]2(C)[C@H]([C@H](OC(=O)c3ccccc3)[C@]3(O)C[C@H](OC(=O)[C@H](O)[C@@H](NC(=O)c4ccccc4)c4ccccc4)C(C)=C1C3(C)C)[C@]1(OC(C)=O)CO[C@@H]1C[C@@H]2O [Taxol, 5(beta),20-Epoxy-1,2(alpha),4,7(beta), 10(beta), b 13(alpha)-hexahydroxytax-11-en-9-one4,10-diacetate 2-benzoate 13-ester with (2R ,3S )-N-benzoyl-3-phenylisoserine] | 2.7 ng/mL | – | – | 6.1 ng/mL | IC50 (HN3 ACC primary culture; Homo sapiens): 6.1 ng/mL
10 | CC[C@]1(O)C[C@@H]2CN(CCc3c([nH]c4ccccc34)[C@@](C(=O)OC)(c3cc4c(cc3OC)N(C)[C@H]3[C@@](O)(C(=O)OC)[C@H](OC(C)=O)[C@]5(CC)C=CCN6CC[C@]43[C@@H]65)C2)C1 [VBL, vinblastin] | – | – | – | – | IC50 (DOK; DOK, 5-7 days): 0.3 ng/mL; IC50 (HN1 ACC primary culture): 1.3 ng/mL; IC50 (HN3 ACC primary culture): 0.9 ng/mL
